Target: T1, Aat (acetyl-CoA acetyltransferase) (Cupriavidus necator, UniProt P14611)
T1 construct: gene phaA; recombinant from E. coli BL21(DE3), Ni-NTA purified, desalted
T1 sequence (P14611 1-393): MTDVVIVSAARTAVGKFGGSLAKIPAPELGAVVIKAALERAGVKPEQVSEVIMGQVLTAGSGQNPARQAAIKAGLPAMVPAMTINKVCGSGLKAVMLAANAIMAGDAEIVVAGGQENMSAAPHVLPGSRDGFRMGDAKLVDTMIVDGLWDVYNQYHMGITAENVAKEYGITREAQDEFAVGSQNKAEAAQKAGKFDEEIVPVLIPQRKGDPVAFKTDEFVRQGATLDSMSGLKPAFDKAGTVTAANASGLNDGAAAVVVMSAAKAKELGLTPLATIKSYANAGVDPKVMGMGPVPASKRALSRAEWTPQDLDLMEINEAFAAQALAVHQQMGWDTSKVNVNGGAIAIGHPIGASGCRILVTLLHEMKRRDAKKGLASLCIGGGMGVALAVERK
Experiment: LC-MS of condensation products, with Aar and Bbd
Type: biochemical
Settings: acetyl-CoA and propionyl-CoA together

Compound: CC(=O)SCCNC(=O)CCNC(=O)[C@H](O)C(C)(C)COP(=O)(O)OP(=O)(O)OC[C@H]1O[C@@H](n2cnc3c(N)ncnc32)[C@H](O)[C@@H]1OP(=O)(O)O [acetyl-CoA]
- LC-MS of condensation products, with Aar and Bbd: Promiscuity of Aat assayed with acetyl-CoA and propionyl-CoA

Compound: CCC(=O)SCCNC(=O)CCNC(=O)[C@H](O)C(C)(C)COP(=O)(O)OP(=O)(O)OC[C@H]1O[C@@H](n2cnc3c(N)ncnc32)[C@H](O)[C@@H]1OP(=O)(O)O [propionyl-CoA]
- LC-MS of condensation products, with Aar and Bbd (condensed with acetyl-CoA, not with itself): All products for acetyl- and propionyl-CoA combinations were detectable

Source: publication PMC9889269, “Synthetic anaplerotic modules for the direct synthesis of complex molecules from CO2” (Nature Chemical Biology, 2022)
